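Exposure lasted 48 hours, with cells grown in 96-well plates and compounds tested at five concentrations. GI50 = concentration required for 50% inhibition of growth. TGI is the concentration that stops growth completely.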
How the values were obtained:
Test in all cases: NCI tumour cell line growth inhibition, 48 h
RPMI-8226 leukemia = system: RPMI-8226 leukemia
SNB-75 CNS = system: SNB-75 CNS
SK-MEL-5 melanoma = system: SK-MEL-5 melanoma
UACC-257 melanoma = system: UACC-257 melanoma
IGROV1 ovarian = system: IGROV1 ovarian
HOP-92 NSCLC = system: HOP-92 NSCLC
KM12 colon = system: KM12 colon
HCT-15 colon = system: HCT-15 colon
OVCAR-8 ovarian = system: OVCAR-8 ovarian
NCI/ADR-RES ovarian = system: NCI/ADR-RES ovarian

With `CSc1nc2c(c(=O)n1C)CN(C1CCCCC1)C(=O)C(c1ccccc1)N2` (stereo not drawn) the GI50 (RPMI-8226 leukemia) was 11.3 µM, the TGI (RPMI-8226 leukemia) was > 100 µM and the GI50 (SNB-75 CNS) was 95.8 µM. The TGI (SNB-75 CNS) was > 100 µM, the GI50 (SK-MEL-5 melanoma) was 10.4 µM and the TGI (SK-MEL-5 melanoma) was 25.7 µM. The GI50 (UACC-257 melanoma) was 38.2 µM, the TGI (UACC-257 melanoma) was > 100 µM and the GI50 (IGROV1 ovarian) was 34.6 µM. The TGI (IGROV1 ovarian) was > 100 µM, the GI50 (HOP-92 NSCLC) was 14.3 µM and the TGI (HOP-92 NSCLC) was 91.4 µM. For the same compound, the GI50 (KM12 colon) was 27.6 µM, the TGI (KM12 colon) was > 100 µM and the GI50 (HCT-15 colon) was 16.1 µM. For the same compound, the TGI (HCT-15 colon) was > 100 µM, the GI50 (OVCAR-8 ovarian) was 46.9 µM and the TGI (OVCAR-8 ovarian) was > 100 µM. The GI50 (NCI/ADR-RES ovarian) was 38.9 µM and the TGI (NCI/ADR-RES ovarian) was > 100 µM.
With `O=C1O/C(=C/c2ccccc2)C(c2ccccc2)=C1O` the TGI (RPMI-8226 leukemia) was 83.3 µM, the TGI (SNB-75 CNS) was > 100 µM and the TGI (SK-MEL-5 melanoma) was 80.9 µM. The TGI (UACC-257 melanoma) was > 100 µM, the TGI (IGROV1 ovarian) was > 100 µM and the TGI (HOP-92 NSCLC) was > 100 µM. The TGI (KM12 colon) was > 100 µM, the TGI (HCT-15 colon) was > 100 µM and the TGI (OVCAR-8 ovarian) was > 100 µM. For the same compound, the TGI (NCI/ADR-RES ovarian) was > 100 µM.
`CC1(C)CCCC(C)(C2CCC3(C)C2C(O)CC2C4(C)CCC(O)C(C)(C)C4CCC23C)O1` (stereo not drawn) was tested, and the TGI (SNB-75 CNS) was > 100 µM, the TGI (SK-MEL-5 melanoma) was > 100 µM and the TGI (UACC-257 melanoma) was > 100 µM. The TGI (IGROV1 ovarian) was > 100 µM, the TGI (HOP-92 NSCLC) was > 100 µM and the TGI (KM12 colon) was > 100 µM. For the same compound, the TGI (HCT-15 colon) was > 100 µM, the TGI (OVCAR-8 ovarian) was > 100 µM and the TGI (NCI/ADR-RES ovarian) was > 100 µM.
`CC(C)COc1nc2c(c(=O)n(C)c(=O)n2C)n1C` was tested, and the GI50 (RPMI-8226 leukemia) was > 100 µM, the TGI (RPMI-8226 leukemia) was > 100 µM and the GI50 (SNB-75 CNS) was 47 µM. For the same compound, the TGI (SNB-75 CNS) was > 100 µM, the GI50 (SK-MEL-5 melanoma) was > 100 µM and the TGI (SK-MEL-5 melanoma) was > 100 µM. For the same compound, the GI50 (UACC-257 melanoma) was > 100 µM, the TGI (UACC-257 melanoma) was > 100 µM and the GI50 (IGROV1 ovarian) was 0.544 µM. The TGI (IGROV1 ovarian) was > 100 µM, the GI50 (HOP-92 NSCLC) was > 100 µM and the TGI (HOP-92 NSCLC) was > 100 µM. The GI50 (KM12 colon) was > 100 µM, the TGI (KM12 colon) was > 100 µM and the GI50 (HCT-15 colon) was > 100 µM. For the same compound, the TGI (HCT-15 colon) was > 100 µM, the GI50 (OVCAR-8 ovarian) was > 100 µM and the TGI (OVCAR-8 ovarian) was > 100 µM. The GI50 (NCI/ADR-RES ovarian) was > 100 µM and the TGI (NCI/ADR-RES ovarian) was > 100 µM.
`Nc1nc(/C=C\c2ccccc2)nc(N2CCN(c3ccccc3)CC2)n1` was tested, and the GI50 (RPMI-8226 leukemia) was 25.9 µM, the TGI (RPMI-8226 leukemia) was > 100 µM and the GI50 (SNB-75 CNS) was 22.2 µM. The TGI (SNB-75 CNS) was 69.4 µM, the GI50 (SK-MEL-5 melanoma) was 21.1 µM and the TGI (SK-MEL-5 melanoma) was 45 µM. The GI50 (UACC-257 melanoma) was 29.1 µM, the TGI (UACC-257 melanoma) was 68.5 µM and the GI50 (IGROV1 ovarian) was 22.9 µM. It also gave a TGI (IGROV1 ovarian) of 69.8 µM, a GI50 (HOP-92 NSCLC) of 21 µM and a TGI (HOP-92 NSCLC) of 93.3 µM. For the same compound, the GI50 (KM12 colon) was 27.2 µM, the TGI (KM12 colon) was 60.6 µM and the GI50 (HCT-15 colon) was 16.3 µM. The TGI (HCT-15 colon) was 78 µM, the GI50 (OVCAR-8 ovarian) was 35.4 µM and the TGI (OVCAR-8 ovarian) was > 100 µM. For the same compound, the GI50 (NCI/ADR-RES ovarian) was 25.5 µM and the TGI (NCI/ADR-RES ovarian) was 93.3 µM.
With `CCN(CC)CCCC(C)N/C(=C1\C(=O)NC(=O)\C1=C(/NC(C)CCCN(CC)CC)c1cccc(OC)c1)c1cccc(OC)c1` (stereo not drawn) the GI50 (RPMI-8226 leukemia) was 0.949 µM, the TGI (RPMI-8226 leukemia) was 2.29 µM and the GI50 (SNB-75 CNS) was 0.735 µM. It also gave a TGI (SNB-75 CNS) of 1.67 µM, a GI50 (SK-MEL-5 melanoma) of 0.836 µM and a TGI (SK-MEL-5 melanoma) of 1.54 µM. It also gave a GI50 (UACC-257 melanoma) of 0.842 µM, a TGI (UACC-257 melanoma) of 1.58 µM and a GI50 (IGROV1 ovarian) of 0.844 µM. It also gave a TGI (IGROV1 ovarian) of 2.35 µM, a GI50 (HOP-92 NSCLC) of 0.642 µM and a TGI (HOP-92 NSCLC) of 1.76 µM. It also gave a GI50 (KM12 colon) of 0.835 µM, a TGI (KM12 colon) of 4.06 µM and a GI50 (HCT-15 colon) of 0.764 µM. The TGI (HCT-15 colon) was 4.07 µM, the GI50 (OVCAR-8 ovarian) was 0.515 µM and the TGI (OVCAR-8 ovarian) was 3.09 µM. It also gave a GI50 (NCI/ADR-RES ovarian) of 1.36 µM and a TGI (NCI/ADR-RES ovarian) of 5.04 µM.
With `CC(=O)N1N=C(c2ccc(Nc3nc(Nc4ccc(F)cc4)nc(Nc4ccc(F)cc4)n3)cc2)CC1c1ccc(N(C)C)cc1` (stereo not drawn) the GI50 (RPMI-8226 leukemia) was 1.77 µM, the TGI (RPMI-8226 leukemia) was 7.57 µM and the GI50 (SNB-75 CNS) was 1.51 µM. For the same compound, the TGI (SNB-75 CNS) was 9.89 µM, the GI50 (SK-MEL-5 melanoma) was 2.83 µM and the TGI (SK-MEL-5 melanoma) was 13 µM. It also gave a GI50 (UACC-257 melanoma) of 7.14 µM, a TGI (UACC-257 melanoma) of 23.5 µM and a GI50 (IGROV1 ovarian) of 7.09 µM. For the same compound, the TGI (IGROV1 ovarian) was 30.6 µM, the TGI (HOP-92 NSCLC) was 0.488 µM and the GI50 (KM12 colon) was 3.34 µM. It also gave a TGI (KM12 colon) of 12.4 µM, a GI50 (HCT-15 colon) of 2.41 µM and a TGI (HCT-15 colon) of 7.43 µM. It also gave a GI50 (OVCAR-8 ovarian) of 2.72 µM, a TGI (OVCAR-8 ovarian) of 10.1 µM and a GI50 (NCI/ADR-RES ovarian) of 4.72 µM. The TGI (NCI/ADR-RES ovarian) was 33.3 µM.

— PubChem BioAssay (NCI)
